# In the supplement of paper PMC13380429:
# How the values were obtained:
# Conditions in all cases: 72 h
# Caco-2 [1] = test: cell viability relative to DMSO; higher = less toxic
# Calu-3 [2] = test: as above
# HepG2 [3] = test: as above
# U2OS [4] = test: as above
# Vero E6 [5] = test: as above
# Caco-2 [6] = test: relative viability EC50 (midpoint between 100% and the lowest measured viability); higher = less toxic
# Calu-3 [7] = test: as above
# HepG2 [8] = test: as above
# U2OS [9] = test: as above
# Vero E6 [10] = test: as above
# Caco-2 [11] = test: drug sensitivity score (DSS) for viability; higher = more toxic; extreme values may be limits of the assay
# Calu-3 [12] = test: as above
# HepG2 [13] = test: as above
# U2OS [14] = test: as above
# Vero E6 [15] = test: as above
Structure (SMILES),cell viability (Caco-2 [1]; 1 nM) [%],cell viability (Caco-2 [1]; 10 nM) [%],cell viability (Caco-2 [1]; 100 nM) [%],cell viability (Caco-2 [1]; 1000 nM) [%],cell viability (Caco-2 [1]; 10000 nM) [%],cell viability (Calu-3 [2]; 1 nM) [%],cell viability (Calu-3 [2]; 10 nM) [%],cell viability (Calu-3 [2]; 100 nM) [%],cell viability (Calu-3 [2]; 1000 nM) [%],cell viability (Calu-3 [2]; 10000 nM) [%],cell viability (HepG2 [3]; 1 nM) [%],cell viability (HepG2 [3]; 10 nM) [%],cell viability (HepG2 [3]; 100 nM) [%],cell viability (HepG2 [3]; 1000 nM) [%],cell viability (HepG2 [3]; 10000 nM) [%],cell viability (U2OS [4]; 1 nM) [%],cell viability (U2OS [4]; 10 nM) [%],cell viability (U2OS [4]; 100 nM) [%],cell viability (U2OS [4]; 1000 nM) [%],cell viability (U2OS [4]; 10000 nM) [%],cell viability (Vero E6 [5]; 1 nM) [%],cell viability (Vero E6 [5]; 10 nM) [%],cell viability (Vero E6 [5]; 100 nM) [%],cell viability (Vero E6 [5]; 1000 nM) [%],cell viability (Vero E6 [5]; 10000 nM) [%],relative viability EC50 (Caco-2 [6]) [µM],relative viability EC50 (Calu-3 [7]) [µM],relative viability EC50 (HepG2 [8]) [µM],relative viability EC50 (U2OS [9]) [µM],relative viability EC50 (Vero E6 [10]) [µM],drug sensitivity score (Caco-2 [11]),drug sensitivity score (Calu-3 [12]),drug sensitivity score (HepG2 [13]),drug sensitivity score (U2OS [14]),drug sensitivity score (Vero E6 [15])
CCC(=N\O)/C(C)=C/c1ccc(F)cc1,93.9,91.4,89.5,96.4,97.5,104,98.5,95.9,107,95,91.9,107,102,102,91,98.4,100,98.4,103,95,99.1,99.2,102,98.5,98.8,> 10,> 10,> 10,> 10,> 10,0,0,0,0,0
CN(C)Cc1ccc(-c2nc3cccc4c3n2CCNC4=O)cc1,92.8,117,104,100,98.2,85.7,90.3,80.8,73.7,99.7,109,93.3,97.5,95.9,77.1,93.6,98,94.6,100,99.8,104,95.9,103,96,101,> 10,> 10,> 10,> 10,> 10,0,0,1.4,0,0
COc1ncc(-c2ccc3nccc(-c4ccnnc4)c3c2)cc1NS(=O)(=O)c1ccc(F)cc1F,84.8,60.2,19,25.3,28.8,79.4,47.4,22.2,19.5,17.4,98.8,77.2,46.3,25,29.2,91,80.3,34.2,13.9,0.9,90.2,80.1,38.9,22.6,15.1,0.0081,0.0044,0.0297,0.0484,0.0351,29.8,32.5,22.2,26.2,24.1
Cc1cc(SCc2sc(-c3ccc(C(F)(F)F)cc3)nc2C)ccc1OCC(=O)O,99.9,103,104,103,96.2,108,92.8,92.6,99.5,102,99,101,106,104,96.1,98.4,102,99.9,107,99,106,104,103,97.6,97.3,> 10,> 10,> 10,> 10,> 10,0,0,0,0,0
O=C(NCC1CCOCC1)c1cnc(Nc2ccc(Cl)cc2Cl)nc1C(F)(F)F,104,99.3,113,104,101,104,107,100,99.4,105,105,102,102,99.2,112,96.5,102,96,95.5,93.2,99.8,91.9,94.8,93.1,98.9,> 10,> 10,> 10,> 10,> 10,0,0,0,0,0
O=C(Nc1ccccc1)N1CCN(c2nc(-c3ccccc3)ns2)CC1,100,97.8,101,95.4,86.7,116,102,106,96.8,102,100,118,101,106,76.9,104,99.5,97.8,99.6,98.9,93.3,96.3,94.1,93,83,> 10,> 10,> 10,> 10,> 10,0.4,0,0.6,0,0.3
C#C[C@]1(OC(C)=O)CC[C@H]2[C@@H]3CCC4=CC(=NO)CC[C@@H]4[C@H]3CC[C@@]21CC (mixture of isomers) [norgestimate],98.3,87.7,73.4,93,92.4,98.6,104,102,106,104,108,97.6,107,91.3,111,97,104,94.3,99.6,96.2,99,94,99.2,99.6,102,> 10,> 10,> 10,> 10,> 10,0,0,0,0,0
